± gives the expanded uncertainty stated by the source.
Tests used:
[1] = xn = mol fraction of the nth substance listed; conditions: 101 kPa, Liquid; for viscosity: Capillary tube (Ostwald / Ubbelohde) method; for mass density: Vibrating tube method
[2] = refractive index (Na D-line) (dimensionless); xn = mol fraction of the nth substance listed; conditions: 101 kPa, Liquid, Standard Abbe refractometry

C1C[C@@H]2[C@H]3CC[C@H](C3)[C@@H]2C1 [exo-tetrahydrodicyclopentadiene] + C1CCCCC1
Conditions | mass density, [1] [kg/m3] | refractive index, [2] | viscosity, [1] [mPa·s]
293.15 K, x1 = 0.0998 | 799.53 ± 0.15 | 1.4357 ± 0.001 | 1.13 ± 0.01
293.15 K, x1 = 0.2006 | 819.11 ± 0.15 | 1.4426 ± 0.001 | 1.296 ± 0.011
293.15 K, x1 = 0.3003 | 837.1 ± 0.14 | 1.4495 ± 0.001 | 1.462 ± 0.011
293.15 K, x1 = 0.3996 | 853.82 ± 0.14 | 1.4564 ± 0.001 | 1.633 ± 0.012
293.15 K, x1 = 0.4987 | 869.42 ± 0.14 | 1.4624 ± 0.001 | 1.814 ± 0.013
293.15 K, x1 = 0.6005 | 884.43 ± 0.14 | 1.4683 ± 0.001 | 2.016 ± 0.014
293.15 K, x1 = 0.7002 | 898.3 ± 0.14 | 1.4732 ± 0.001 | 2.231 ± 0.015
293.15 K, x1 = 0.8008 | 911.5 ± 0.14 | 1.4781 ± 0.001 | 2.463 ± 0.016
293.15 K, x1 = 0.9 | 923.87 ± 0.15 | 1.4829 ± 0.001 | 2.72 ± 0.018
293.15 K, x1 = 1 | 935.72 ± 0.15 | 1.4874 ± 0.001 | 2.992 ± 0.02
298.15 K, x1 = 0.0998 | 794.92 ± 0.15 | – | 1.032 ± 0.01
298.15 K, x1 = 0.2006 | 814.56 ± 0.15 | – | 1.18 ± 0.01
298.15 K, x1 = 0.3003 | 832.65 ± 0.14 | – | 1.327 ± 0.011
298.15 K, x1 = 0.3996 | 849.45 ± 0.14 | – | 1.481 ± 0.012
298.15 K, x1 = 0.4987 | 865.15 ± 0.14 | – | 1.645 ± 0.012
298.15 K, x1 = 0.6005 | 880.23 ± 0.14 | – | 1.828 ± 0.013
298.15 K, x1 = 0.7002 | 894.2 ± 0.14 | – | 2.024 ± 0.014
298.15 K, x1 = 0.8008 | 907.48 ± 0.14 | – | 2.236 ± 0.015
298.15 K, x1 = 0.9 | 919.92 ± 0.15 | – | 2.466 ± 0.017
298.15 K, x1 = 1 | 931.84 ± 0.15 | – | 2.71 ± 0.018
303.15 K, x1 = 0.0998 | 790.27 ± 0.15 | 1.4305 ± 0.001 | 0.948 ± 0.01
303.15 K, x1 = 0.2006 | 809.99 ± 0.15 | 1.4373 ± 0.001 | 1.08 ± 0.01
303.15 K, x1 = 0.3003 | 828.19 ± 0.15 | 1.4449 ± 0.001 | 1.212 ± 0.011
303.15 K, x1 = 0.3996 | 845.07 ± 0.14 | 1.4512 ± 0.001 | 1.351 ± 0.011
303.15 K, x1 = 0.4987 | 860.86 ± 0.14 | 1.4582 ± 0.001 | 1.5 ± 0.012
303.15 K, x1 = 0.6005 | 876.06 ± 0.14 | 1.4633 ± 0.001 | 1.668 ± 0.012
303.15 K, x1 = 0.7002 | 890.08 ± 0.14 | 1.4689 ± 0.001 | 1.846 ± 0.013
303.15 K, x1 = 0.8008 | 903.43 ± 0.14 | 1.4739 ± 0.001 | 2.037 ± 0.014
303.15 K, x1 = 0.9 | 915.95 ± 0.15 | 1.4789 ± 0.001 | 2.248 ± 0.016
303.15 K, x1 = 1 | 927.94 ± 0.15 | 1.4831 ± 0.001 | 2.467 ± 0.017
308.15 K, x1 = 0.0998 | 785.6 ± 0.15 | – | 0.874 ± 0.009
308.15 K, x1 = 0.2006 | 805.41 ± 0.15 | – | 0.993 ± 0.01
308.15 K, x1 = 0.3003 | 823.69 ± 0.15 | – | 1.113 ± 0.01
308.15 K, x1 = 0.3996 | 840.68 ± 0.14 | – | 1.239 ± 0.011
308.15 K, x1 = 0.4987 | 856.56 ± 0.14 | – | 1.375 ± 0.011
308.15 K, x1 = 0.6005 | 871.85 ± 0.14 | – | 1.528 ± 0.012
308.15 K, x1 = 0.7002 | 885.97 ± 0.14 | – | 1.691 ± 0.013
308.15 K, x1 = 0.8008 | 899.4 ± 0.15 | – | 1.866 ± 0.014
308.15 K, x1 = 0.9 | 911.98 ± 0.15 | – | 2.056 ± 0.015
308.15 K, x1 = 1 | 924.02 ± 0.15 | – | 2.255 ± 0.016
313.15 K, x1 = 0.0998 | 780.9 ± 0.16 | 1.4238 ± 0.001 | 0.808 ± 0.009
313.15 K, x1 = 0.2006 | 800.82 ± 0.15 | 1.4319 ± 0.001 | 0.917 ± 0.01
313.15 K, x1 = 0.3003 | 819.19 ± 0.15 | 1.439 ± 0.001 | 1.026 ± 0.01
313.15 K, x1 = 0.3996 | 836.28 ± 0.15 | 1.4456 ± 0.001 | 1.141 ± 0.01
313.15 K, x1 = 0.4987 | 852.26 ± 0.14 | 1.453 ± 0.001 | 1.267 ± 0.011
313.15 K, x1 = 0.6005 | 867.63 ± 0.14 | 1.4583 ± 0.001 | 1.407 ± 0.011
313.15 K, x1 = 0.7002 | 881.85 ± 0.14 | 1.4642 ± 0.001 | 1.555 ± 0.012
313.15 K, x1 = 0.8008 | 895.35 ± 0.15 | 1.4689 ± 0.001 | 1.715 ± 0.013
313.15 K, x1 = 0.9 | 907.1 ± 0.15 | 1.4737 ± 0.001 | 1.888 ± 0.014
313.15 K, x1 = 1 | 920.11 ± 0.15 | 1.4786 ± 0.001 | 2.069 ± 0.015
318.15 K, x1 = 0.0998 | – | – | 0.751 ± 0.009
318.15 K, x1 = 0.2006 | – | – | 0.848 ± 0.009
318.15 K, x1 = 0.3003 | – | – | 0.949 ± 0.01
318.15 K, x1 = 0.3996 | – | – | 1.055 ± 0.01
318.15 K, x1 = 0.4987 | – | – | 1.169 ± 0.011
318.15 K, x1 = 0.6005 | – | – | 1.298 ± 0.011
318.15 K, x1 = 0.7002 | – | – | 1.435 ± 0.012
318.15 K, x1 = 0.8008 | – | – | 1.581 ± 0.012
318.15 K, x1 = 0.9 | – | – | 1.741 ± 0.013
318.15 K, x1 = 1 | – | – | 1.907 ± 0.014

Source: the NIST ThermoML archive (doi:10.1021/je400529k)
